Biological target: T1, Mdm2/p53 binding (GST-Mdm2 / His-p53) (Homo sapiens, UniProt Q00987, L33E)
T1 construct: Mdm2 partial protein having Mdm2 amino acids at positions 25 to 108
Assay: Mdm2/p53 binding assay (HTRF, His-p53 and GST-Mdm2)
Conditions: His-p53 (aa 1-132) and GST-Mdm2 (aa 25-108, L33E) 6.25 nM each; 25°C, 1 hour; values given as ranges
Method in brief: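 His-p53 (aa 1–132) and GST-Mdm2 (aa 25–108, L33E) were prepared at 6.25 nM each in the protein dilution (20 mM HEPES pH 7.4, 150 mM NaCl, 0.1% BSA). Compound in 10% DMSO buffer and XL665 anti-His/Eu anti-GST antibodies (KF buffer) were added, with 1 h at 25 °C. The 665/620 nm TR-FRET ratio gave T/C and a sigmoid-fitted IC50.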

T1 sequence (Q00987 25-108 L33E): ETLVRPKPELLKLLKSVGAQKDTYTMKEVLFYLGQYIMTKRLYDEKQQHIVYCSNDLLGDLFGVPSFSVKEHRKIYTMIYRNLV

Row | Structure (SMILES) | IC50
1 | CO[C@@H]1C[C@@H](NC(=O)[C@@H]2NC3(CC(CF)(CF)C3)[C@@]3(C(=O)Nc4cc(Cl)ccc43)[C@H]2c2cccc(Cl)c2F)CO[C@@H]1CO [Example 129, (3′R,4′S,5′R)-6″-chloro-4′-(3-chloro-2-fluorophenyl)-3,3-bis(fluoromethyl)-N-[(3R,5R,6R)-6-(hydroxymethyl)-5-methoxytetrahydro-2H-pyran-3-yl]-2″-oxo-1″,2″-dihydrodispiro[cyclobutane-1,2′-pyrrolidine-3′,3″-indole]-5′-carboxamide] | 1 to 50 nM
2 | CC1(C)CCC2(CC1)N[C@@H](C(=O)N[C@H]1CC[C@H](c3nnc(CO)o3)CC1)[C@H](c1ccnc(Cl)c1F)[C@]21C(=O)Nc2cc(Cl)ccc21 [Example 130, (3′R, 4′S,5′R)-6″-chloro-4′-(2-chloro-3-fluoropyridin-4-yl)-N-{trans-4-[5-(hydroxymethyl)-1,3,4-oxadiazol-2-yl]cyclohexyl}-4,4-dimethyl-2″-oxo-1″,2″-dihydrodispiro[cyclohexane-1,2′-pyrrolidine-3′,3″-indole]-5′-carboxamide] | 1 to 50 nM
3 | O=C(N[C@H]1CC[C@H](c2nnc(CO)o2)CC1)[C@@H]1NC2(CC(CF)(CF)C2)[C@@]2(C(=O)Nc3cc(Cl)ccc32)[C@H]1c1cccc(Cl)c1F [Example 131, (3′R, 4′S,5′R)-6″-chloro-4′-(3-chloro-2-fluorophenyl)-3,3-bis(fluoromethyl)-N-[trans-4-[5-(hydroxymethyl)-1,3,4-oxadiazol-2-yl]cyclohexyl]-2″-oxo-1″,2″-dihydrodispiro[cyclobutane-1,2′-pyrrolidine-3′,3″-indole]-5′-carboxamide] | 50 to 100 nM
4 | C[C@@H](O)c1nnc([C@H]2CC[C@H](NC(=O)[C@@H]3NC4(CCC(C)(C)CC4)[C@@]4(C(=O)Nc5cc(Cl)ccc54)[C@H]3c3ccnc(Cl)c3F)CC2)o1 [Example 132, (3′R, 4′S, S′R)-6″-chloro-4′-(2-chloro-3-fluoropyridin-4-yl)-N-(trans-4-{5-[(1R)-1-hydroxyethyl]-1,3,4-oxadiazol-2-yl}cyclohexyl)-4,4-dimethyl-2″-oxo-1″,2″-dihydrodispiro[cyclohexane-1,2′-pyrrolidine-3′,3″-indole]-5′-carboxamide] | 50 to 100 nM
5 | COC[C@@H]1CC[C@@H](NC(=O)[C@@H]2NC3(CCC(C)(C)CC3)[C@@]3(C(=O)Nc4cc(Cl)ccc43)[C@H]2c2ccnc(Cl)c2F)CO1 [Example 133, (3′R, 4′S,5′R)-6″-chloro-4′-(2-chloro-3-fluoropyridin-4-yl)-N-[(3R,6S)-6-(methoxymethyl)tetrahydro-2H-pyran-3-yl]-4,4-dimethyl-2″-oxo-1″,2″-dihydrodispiro[cyclohexane-1,2′-pyrrolidine-3′,3″-indole]-5′-carboxamide] | 50 to 100 nM
6 | NC(=O)[C@H]1C[C@H](NC(=O)[C@@H]2NC3(CC(CF)(CF)C3)[C@@]3(C(=O)Nc4cc(Cl)ccc43)[C@H]2c2cccc(Cl)c2F)C1 [Example 134, (3′R, 4′S,5′R)—N-(trans-3-carbamoylcyclobutyl)-6″-chloro-4′-(3-chloro-2-fluorophenyl)-3,3-bis(fluoromethyl)-2″-oxo-1″,2″-dihydrodispiro[cyclobutane-1,2′-pyrrolidine-3′,3″-indole]-5′-carboxamide] | 1 to 50 nM
7 | CC(C)(O)[C@@H]1CC[C@@H](NC(=O)[C@@H]2NC3(CC(CF)(CF)C3)[C@@]3(C(=O)Nc4cc(Cl)ccc43)[C@H]2c2cccc(Cl)c2F)CO1 [Example 135, (3′R, 4′S,5′R)-6″-chloro-4′-(3-chloro-2-fluorophenyl)-3,3-bis(fluoromethyl)-N-[(3R,6S)-6-(1-hydroxy-1-methylethyl)tetrahydro-2H-pyran-3-yl]-2″-oxo-1″,2″-dihydrodispiro[cyclobutane-1,2′-pyrrolidine-3′,3″-indole]-5′-carboxamide] | 100 to 500 nM
